Literature values as cited in patent US20220152000A1, “PROLONGED RELEASE FORMULATION COMPRISING TACROLIMUS” (PHARMATHEN S.A., priority 2019, published 2022).
Converted amounts (≈) assume the structure as drawn.

Tests used:
[1] = target: T1, CYP3A4 isoenzyme (Homo sapiens, UniProt P08684); settings: gut wall and liver
T1 construct: metabolized by the CYP3A4 isoenzyme in the gut wall and liver; from tissue; host or cells: gut wall and liver

[2] = simultaneous ingestion of food versus fasted

T1 sequence (P08684 whole entry): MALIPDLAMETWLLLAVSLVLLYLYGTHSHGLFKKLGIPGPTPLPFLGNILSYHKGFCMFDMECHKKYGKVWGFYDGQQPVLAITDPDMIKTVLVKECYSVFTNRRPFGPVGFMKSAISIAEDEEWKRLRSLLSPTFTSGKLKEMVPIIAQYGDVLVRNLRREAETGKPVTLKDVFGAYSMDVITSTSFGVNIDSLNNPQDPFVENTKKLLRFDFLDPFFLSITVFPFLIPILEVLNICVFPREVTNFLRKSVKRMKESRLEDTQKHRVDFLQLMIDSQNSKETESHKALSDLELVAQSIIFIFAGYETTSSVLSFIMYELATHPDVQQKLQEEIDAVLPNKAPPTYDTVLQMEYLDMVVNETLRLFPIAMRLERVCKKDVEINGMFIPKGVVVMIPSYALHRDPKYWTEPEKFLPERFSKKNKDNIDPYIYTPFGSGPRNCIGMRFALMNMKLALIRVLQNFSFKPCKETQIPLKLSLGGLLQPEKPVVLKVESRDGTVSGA

Metabolism by CYP3A4 [1]: extensively metabolized
Solubility in ethanol (ethanol): 25 mg/mL (≈ 31.1 mM)
Solubility in hexane, petroleum ether (hexane, petroleum ether): sparingly soluble
Solubility in organic solvents (methanol, ethanol, acetone, ethyl acetate, diethyl ether, chloroform, dicloromethane): soluble
Solubility in water (water): insoluble
SMILES: C=CC[C@@H]1/C=C(\C)C[C@H](C)C[C@H](OC)[C@H]2O[C@@](O)(C(=O)C(=O)N3CCCC[C@H]3C(=O)O[C@H](/C(C)=C/[C@@H]3CC[C@@H](O)[C@H](OC)C3)[C@H](C)[C@@H](O)CC1=O)[C@H](C)C[C@@H]2OC [Tacrolimus]
Absorption after oral administration, effect of food [2]: negatively influenced by simultaneous ingestion of food
